Experimental data as given in PubChem BioAssay (NCI).
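How tested: cells in 96-well plates exposed to compound for 48 hours at five concentrations. Here, GI50 denotes the concentration required for 50% inhibition of growth. The concentration for full growth arrest is given as TGI.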

What was measured:
Assay in all cases: NCI tumour cell line growth inhibition, 48 h
[1] = tested on: OVCAR-3 ovarian
[2] = tested on: SNB-19 CNS
[3] = tested on: ACHN renal
[4] = tested on: HCC-2998 colon
[5] = tested on: MALME-3M melanoma
[6] = tested on: TK-10 renal
[7] = tested on: IGROV1 ovarian
[8] = tested on: K-562 leukemia
[9] = tested on: PC-3 prostate
[10] = tested on: HCT-116 colon

Compound | TGI [1] [µM] | TGI [2] [µM] | TGI [3] [µM] | TGI [4] [µM] | TGI [5] [µM] | TGI [6] [µM] | TGI [7] [µM] | TGI [8] [µM] | GI50 [1] [µM] | GI50 [2] [µM] | GI50 [3] [µM] | GI50 [9] [µM] | TGI [9] [µM] | GI50 [5] [µM] | GI50 [10] [µM] | TGI [10] [µM] | GI50 [6] [µM] | GI50 [7] [µM] | GI50 [8] [µM] | GI50 [4] [µM]
COc1cc2nc(NCCCCCNC(=O)c3ccco3)nc(N)c2cc1OC | 62.5 | > 100 | > 100 | 38.2 | 33.3 | > 100 | > 100 | > 100 | – | – | – | – | – | – | – | – | – | – | – | –
CN(CCCCCl)P(=O)(OCCS(=O)(=O)CC(NC(=O)CCC(N)C(=O)O)C(=O)NC(C(=O)O)c1ccccc1)OCC1OC(n2cc(F)c(=O)[nH]c2=O)CC1O (stereo not drawn) | > 84.4 | > 100 | 14 | – | > 72.2 | > 21.4 | > 100 | > 100 | 1.22 | 1.3 | < 0.01 | 0.882 | > 36.1 | 8.98 | 0.161 | 39.9 | 0.944 | 0.0884 | 1.81 | –
CC1CN1c1c(C(=O)/C=C/c2ccccc2)c(-c2ccccc2)nn(C)c1=O (stereo not drawn) | 40.8 | 50.2 | 33.7 | 29.9 | 34.9 | 61.4 | 59.8 | 50.4 | – | – | – | – | – | – | – | 33.2 | – | – | – | –
COc1ccc(-c2cc(=O)c3c(OC)c(OC)c(OC)c(OC)c3o2)cc1 | > 100 | > 100 | > 100 | > 100 | > 100 | > 100 | > 100 | > 100 | – | – | – | – | – | – | – | > 100 | – | – | – | –
CN1COc2c(n(C)c(=O)[nH]c2=O)C1 | > 100 | > 100 | > 100 | > 100 | > 100 | > 100 | > 100 | > 100 | – | – | – | – | – | – | – | > 100 | – | – | – | –
CCN(CCO)CC(C)Nc1ccc([N+](=O)[O-])c2sc3ccccc3c(=O)c12 (stereo not drawn) | 12.3 | 19 | 12.1 | – | 2.13 | 11.7 | 1.6 | 6.71 | 2.96 | 2.34 | 1.01 | 1.33 | 4.55 | 0.421 | 0.996 | 2.69 | 1.44 | 0.34 | 1.44 | –
CCOC1=C2N=C(Cc3ccccc3F)N=C2C(=O)c2ccccc21 | > 100 | > 100 | > 100 | > 100 | > 100 | – | – | > 100 | – | – | – | – | – | – | – | > 100 | – | – | – | –
CNS(=O)(=O)NNS(=O)(=O)c1ccc(Cl)cc1 | > 100 | > 100 | > 100 | > 100 | > 100 | > 100 | > 100 | > 100 | – | – | – | – | – | – | – | > 100 | – | – | – | –
COc1ccc(C=O)c(NC(=O)C(C)C)c1 | > 100 | > 100 | > 100 | – | 94.4 | > 100 | > 100 | > 100 | – | – | – | – | – | – | – | 31.2 | – | – | – | –
N/N=C1\CC(=O)NC(=O)N1 | > 100 | > 100 | > 100 | – | > 100 | > 100 | > 100 | > 100 | – | – | – | – | > 100 | – | – | > 100 | – | – | – | –
O=C(O)COc1c(Cl)cc(Cl)c2cccnc12 | > 100 | > 100 | > 100 | – | > 100 | > 100 | > 100 | > 100 | – | – | – | – | > 100 | – | – | > 100 | – | – | – | –
CCCCCCN(N)C(=O)CC#N | > 100 | – | > 100 | > 100 | > 100 | > 100 | > 100 | > 100 | – | – | – | – | – | – | – | > 100 | – | – | – | –
Cc1ccc(NC(=O)c2ccccc2C(=O)O)cc1C | > 100 | > 100 | > 100 | – | > 100 | > 100 | > 100 | > 100 | – | – | – | – | > 100 | – | – | > 100 | – | – | – | –
N#Cc1ccc(N=Cc2c([O-])ccc3ccccc23)cc1.[C-]#[O+].[C-]#[O+].[Ir] | 15.1 | 33.2 | 18.7 | 27.8 | 15.1 | 13.5 | 27.9 | 28.9 | 4.02 | 18.4 | 6.32 | – | – | 4.42 | 13.2 | 26 | 4.35 | 14.1 | 8.99 | 14.7
CCOC(=O)C(=O)Nc1cc(Cl)ccc1Cl | > 100 | > 100 | > 100 | > 100 | > 100 | > 100 | > 100 | > 100 | – | – | – | – | – | – | – | > 100 | – | – | – | –
O=[N+]([O-])c1cc(S(=O)(=O)Oc2ccccc2)ccc1Cl | 2.85 | 11.1 | 9.05 | 3.33 | – | 25.1 | 3.22 | > 100 | 1.49 | 3.11 | 3.22 | 2.05 | 4.45 | – | 1.85 | 3.43 | 12.5 | 1.77 | 0.432 | 1.74
O=C([CH-]C(=O)c1ccccc1)c1ccccc1.O=C([CH-]C(=O)c1ccccc1)c1ccccc1.[OH-].[OH-].[Ti+4] | > 100 | > 100 | > 100 | > 100 | > 100 | > 100 | > 100 | > 100 | 51.1 | 39.9 | > 100 | – | – | > 100 | 84.3 | > 100 | > 100 | > 100 | 63.3 | > 100
O=C(NC1CCCC1=O)c1ccccc1 (stereo not drawn) | > 100 | > 100 | > 100 | – | > 100 | > 100 | > 100 | > 100 | – | – | – | – | – | – | – | > 100 | – | – | – | –
C=C1CCC2[C@@H](CCC3[C@]2(C)CCC[C@]3(C)C(=O)OC)[C@@H]1CC=O (stereo partly drawn) | 41.9 | > 100 | 82 | > 100 | 87.7 | 77.5 | > 100 | 77.4 | – | 47.5 | – | – | – | – | – | 30.7 | 31 | – | 26 | –
